Source: BindingDB's records for patent US11034692 (Genentech, 2021)

Biological target: Mitogen-activated protein kinase kinase kinase kinase 1 (Homo sapiens, UniProt Q92918)
Assay: Binding Assay
Method: Lanth: For the binding assay, 4 ul 2×HPK1 and Eu-anti-GST antibody were added to each well of the assay plate using a Multidrop reagent dispenser. The solutions were incubated in a 23 C incubator for 1 h. To each well of the assay plate was added 4 ul 2× Tracer-222 using a Multidrop reagent dispenser. The solutions were again incubated in a 23 C incubator for 1 h. The results of the assay were read using an Envision plate reader with the following parameters: TR_FRET, 340ex/615 and 665em; 100 usec Delay; and 200 usec integration.

Sequence of Mitogen-activated protein kinase kinase kinase kinase 1 (Q92918 whole entry): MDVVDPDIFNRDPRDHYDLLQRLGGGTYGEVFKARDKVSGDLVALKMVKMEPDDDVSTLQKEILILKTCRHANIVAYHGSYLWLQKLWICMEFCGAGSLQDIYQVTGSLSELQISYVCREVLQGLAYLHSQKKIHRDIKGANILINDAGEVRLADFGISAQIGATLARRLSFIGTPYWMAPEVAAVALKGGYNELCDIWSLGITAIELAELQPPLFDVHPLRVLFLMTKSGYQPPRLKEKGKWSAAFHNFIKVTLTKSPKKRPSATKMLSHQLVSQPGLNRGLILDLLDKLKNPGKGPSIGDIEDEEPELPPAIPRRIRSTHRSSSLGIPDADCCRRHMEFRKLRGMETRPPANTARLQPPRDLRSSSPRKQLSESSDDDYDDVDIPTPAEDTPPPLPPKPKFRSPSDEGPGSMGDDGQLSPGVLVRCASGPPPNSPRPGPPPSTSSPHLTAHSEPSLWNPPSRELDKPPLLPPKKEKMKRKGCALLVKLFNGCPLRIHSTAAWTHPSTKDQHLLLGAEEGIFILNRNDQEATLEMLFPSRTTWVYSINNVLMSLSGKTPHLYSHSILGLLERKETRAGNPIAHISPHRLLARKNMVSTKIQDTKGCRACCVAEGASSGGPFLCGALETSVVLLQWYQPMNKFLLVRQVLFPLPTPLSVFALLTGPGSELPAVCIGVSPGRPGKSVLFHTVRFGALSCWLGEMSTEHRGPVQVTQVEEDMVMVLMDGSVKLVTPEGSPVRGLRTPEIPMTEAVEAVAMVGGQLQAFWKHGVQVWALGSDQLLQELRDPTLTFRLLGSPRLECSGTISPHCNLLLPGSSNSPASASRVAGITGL

**Q.** `Cn1cc(-c2cc3cc(NC(=O)[C@H]4C[C@H]4F)ncc3c(N)n2)cn1` [US11034692, Compound 4] was tested. Which Ki did it give?
**A.** 2.87 nM
